Results from PMC4585840 (Scientific Reports, 2015).
Residue numbers refer to the chain shown, from its start.

How the values were obtained:
RCasp3 = target: T1, RCasp3 (Homo sapiens, UniProt P42574); assay: in vitro fluorogenic Casp3 activity assay (Ac-DEVD-AFC); format: biochemical; settings: 20 nM RCasp3; 1 μM Q-VD-OPh or 0.1 μM bortezomib; Fig. 5c
T1 construct: Active Casp6 and Casp3 represented >99% of the purified enzyme; purchased Enzo Lifesciences
T1 sequence (P42574 29-175 limits assumed): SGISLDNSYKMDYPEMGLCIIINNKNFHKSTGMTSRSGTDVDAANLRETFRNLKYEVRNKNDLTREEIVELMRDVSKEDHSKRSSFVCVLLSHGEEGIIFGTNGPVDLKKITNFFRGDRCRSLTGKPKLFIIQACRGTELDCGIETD
T1 sequence (P42574 176-277 limits assumed): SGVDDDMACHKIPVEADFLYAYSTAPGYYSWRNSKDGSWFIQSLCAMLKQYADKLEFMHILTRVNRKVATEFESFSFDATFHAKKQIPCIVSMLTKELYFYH

[1] = target: T2, DEVDase activity in mouse liver protein extracts (Mus musculus, UniProt P70677); assay: DEVDase activity in mouse liver protein extracts with added inhibitors; format: biochemical; settings: inhibitor added to extracts: 1 μM Q-VD-OPh, 0.1 μM bortezomib or 0.1 μM epoxomicin
T2 construct: Casp3 activity was assessed in liver protein extracts from mice; from tissue; host or cells: mouse liver (C57BL6/J), protein extracts
T2 sequence (P70677 29-175 limits assumed): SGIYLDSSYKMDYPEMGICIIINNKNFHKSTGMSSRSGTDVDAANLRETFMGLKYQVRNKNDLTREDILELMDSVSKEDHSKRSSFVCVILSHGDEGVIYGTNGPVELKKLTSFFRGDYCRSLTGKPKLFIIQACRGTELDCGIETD
T2 sequence (P70677 176-277 limits assumed): T1 sequence (P42574 176-277 limits assumed) with V3T, D5E, D6E, H10Q, A46S, Q50L, D53H, F77L, A79S
Description: (§1) Activity assays for RCasp1 (Biovision, Millpitas, CA, USA) and RCasp3 (Enzo Lifesciences) used Z-Tyr-Val-Ala-Asp-7-Amino-4-trifluoromethylcoumarin (z-YVAD-AFC: Enzo LifeSciences,), and Ac-Asp-Glu-Val-Asp-7-Amino-4-trifluoromethylcouramin (Ac-DEVD-AFC: Enzo LifeSciences), respectively. To confirm that these substrates report caspase activity and not proteasomal caspase-like enzyme activity, 1 μM pan-caspase inhibitor, Q-VD-OPh (Sigma-Aldrich) or 0.1 μM proteasome inhibitor, bortezomib (Calbiochem, MA, USA) were tested on 20 nM RCasp3 or 40–60 μg of mouse liver protein extracts.
(§2) The caspase-like activity of the proteasome was measured using 10 μM Ac-Nle-Pro-Nle-Asp-AMC (Ac-nLPnLD-AMC, Enzo Lifesciences) as described for caspase activity assays except for the use of 10 mM DTT and a 7-amino-4-methylcoumarin (AMC, Sigma-Aldrich) standard curves. Mouse liver protein extracts were treated with 0.1 μM of epoxomicin (Enzo Lifesciences), bortezomib, 1 μM of Q-VD-OPh, or equal volumes of DMSO for 20 mins on ice before measuring proteasome or caspase activities.

RCasp6 [2] = target: T3, RCasp6 (Homo sapiens, UniProt P55212); assay: in vitro fluorogenic Casp6 activity assay (Ac-VEID-AFC); format: biochemical; settings: 10 μM DTT; Fig. 1c
T3 construct: The zymogen is cleaved at three distinct sites to remove the prodomain and linker regions in order to obtain an active enzyme; His tag (C); made in house; host or cells: E. coli BL21 (DE3)pLysS
T3 sequence (P55212 24-179 limits assumed): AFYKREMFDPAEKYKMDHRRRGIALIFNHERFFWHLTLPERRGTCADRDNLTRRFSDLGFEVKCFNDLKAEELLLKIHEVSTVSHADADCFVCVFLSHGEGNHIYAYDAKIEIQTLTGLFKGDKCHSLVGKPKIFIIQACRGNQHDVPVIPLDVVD
T3 sequence (P55212 194-293 limits assumed): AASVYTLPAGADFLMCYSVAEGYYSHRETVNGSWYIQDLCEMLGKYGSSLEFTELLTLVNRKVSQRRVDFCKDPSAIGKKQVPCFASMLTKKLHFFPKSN

human primary neurons = assay: cell viability (microscopy) in human primary neurons; format: cell-based; settings: phase contrast microscopy, 2 hours
Description: (§3) HCT116 cells, plated at a density of 1 × 10^5 cells/well and human neurons, plated at a density of 6 × 10^6 cells/well on poly-L-lysine were treated with PBS or phenothiazines for 2 hours. The media was replaced before acquiring images with the Nikon Eclipse Ti microscope and the NIS-Elements (Version 3.10) software. MTT assays: Cells were plated in 96-well plates at 1 × 10^4 or 1 × 10^5 cells per well for 24 hours before treatments with phenothiazines or PBS. After 2 hours, fresh media containing […] MTT (3-(4,5-dimethylthiazol-2-yl)-2,5-diphenyltetrazolium bromide) (Sigma-Aldrich) was added and the cells were incubated for 4 hours at 37 °C in 5% CO2. The media was removed, formazan crystals were dissolved in DMSO, and the absorbance was measured at 560 nm and 670 nm using the BioTek Synergy H4 plate reader.

Casp6 [3] = target: T4, Casp6 (Homo sapiens, UniProt P55212); assay: Casp6 activity in serum-deprived human primary neuron cultures; format: cell-based; design: endogenous in cells; host or cells: human primary neurons from fetal brain cortex; settings: serum-deprived neurons, 2 hrs, 100 μM methylene blue, 50 μM azure A, 10 μM azure B; for Tub∆Casp6/Tub levels: vs PBS-treated serum-deprived neurons
T4 sequence (P55212 24-179 limits assumed): T3 sequence (P55212 24-179 limits assumed)
T4 sequence (P55212 194-293 limits assumed): T3 sequence (P55212 194-293 limits assumed)

RCasp6 [4] = target: T3, RCasp6; assay: inhibitor kinetic studies (Michaelis-Menten / Lineweaver-Burk) on RCasp6; format: biochemical; settings: for mode of inhibition: Lineweaver Burk plot, Km increasing, Vmax the same; for Ki: competitive inhibition model, nonlinear regression, Ac-VEID-AFC substrate, 10 nM RCasp6
RCasp6 [5] = target: T3, RCasp6; assay: in vitro tubulin cleavage assay with RCasp6; format: biochemical; settings: 20 nM RCasp6, 10 μM DTT, 10 hours, western blot densitometry; read-out: IC50, cleavage of tubulin by RCasp6 (Tub∆Casp6 relative to total tubulin)
Description: Phenothiazines were mixed with 20 nM RCasp6 or RCasp3, 10 μM DTT, and 7.5 nM BSA in SB and 36 μg HCT116 protein extracts added before incubation at 37 °C for 10 hours, western blotting, and densitometry for tubulin-cleaved by Casp6 (Tub∆Casp6) and total tubulin as described in the western blot section. The IC50 was determined by a non-linear regression fit for log inhibitor vs caspase activity with a Hill slope of −1 using GraphPad Prism 5.0.
(§4) The 10630 (1:10,000) and GN60622 (1:10,000) neoepitope antibodies against the p20 subunit of active Casp6[16] and Tub∆Casp6[23], respectively, were generated in our laboratory. The β-actin clone AC-15 (1:5000, Sigma-Aldrich), Casp6 p10 clone B93-4 (1:250, BD Canada, Mississauga, ON, CA), Casp3, and full-length α-tubulin (1:1000, Cell Signaling Technology Inc., Danvers, MA, USA) antibodies were diluted in 5% non-fat dry milk in Tris-buffered saline containing 0.1% Tween-20 (Sigma-Aldrich). […] Secondary anti-mouse conjugated to alkaline phosphatase (Jackson Immunoresearch Laboratories Inc., West Grove, PA) was developed with nitro-blue tetrazolium (ThermoSci) and 5-bromo-4-chloro-3′-indolyphosphate (ThermoSci).

HCT116 cells = assay: cell viability (microscopy and MTT) in HCT116 cells; format: cell-based, human; settings: 2 hours; for concentration at which cells retained morphology and confluence comparable to PBS-treated controls: HCT116, phase contrast microscopy
Description: as §3

Casp6 [6] = target: T4, Casp6; assay: Casp6 activity in Casp6p20p10-transfected HCT116 cells; format: cell-based; design: for active Casp6p20 subunit (p20), full length Casp6 lacking its pro-domain; Casp6p20p10 (p20p10); expressed in transfected cells; host or cells: HCT116 human colon carcinoma cells; settings: transfected HCT116, 2 hrs; 100 μM and 1 mM methylene blue, 50 μM azure A, 10 μM and 100 μM azure B
Description: as §1
Human colon carcinoma (HCT116) cells, cultured as recommended (ATCC: Manassas, VA, USA), were transfected with 1 μg pCep4βCasp6p20p10 and 8 μg polyethyleneimine (Polysciences Inc., Warrington, PA, USA), and grown 24 hrs before treatment with PBS and phenothiazines for 2 hours. Human primary neurons were cultured from fetal brain cortical areas obtained under ethical guidelines and approved by the McGill University’s institutional review board as previously described. Human primary neurons plated in poly-L-lysine -coated 6-well plates at a density of 3 × 10^6 cells/mL were serum-deprived for 2 hours in the presence of phenothiazines or an equivalent volume of PBS. Proteins were harvested in cell lysis buffer (CLB; 50mM HEPES, 0.1% CHAPS, 0.1mM EDTA).
as §4

[7] = target: T5, catalytic Cys163 of Casp6 (Homo sapiens, UniProt P55212); assay: LC/MS/MS analysis of Casp6 Cys163 oxidation; settings: RCasp6 treated with 2 mM compound, 45 min, 37 °C
T5 construct: The zymogen is cleaved at three distinct sites to remove the prodomain and linker regions in order to obtain an active enzyme; His tag (C); made in house; host or cells: E. coli BL21 (DE3)pLysS
T5 sequence (P55212 24-179 limits assumed): T3 sequence (P55212 24-179 limits assumed)
T5 sequence (P55212 194-293 limits assumed): T3 sequence (P55212 194-293 limits assumed)

[8] = target: T6, caspase-like activity of the proteasome (Mus musculus, UniProt Q60692); assay: proteasome assay (Ac-nLPnLD-AMC); format: biochemical; settings: mouse liver protein extracts, 0.1 μM bortezomib; supplementary Fig. S2
T6 construct: nLPnLDase activity in mouse liver protein extracts; from tissue; host or cells: mouse liver protein extracts
T6 sequence (Q60692 1-238): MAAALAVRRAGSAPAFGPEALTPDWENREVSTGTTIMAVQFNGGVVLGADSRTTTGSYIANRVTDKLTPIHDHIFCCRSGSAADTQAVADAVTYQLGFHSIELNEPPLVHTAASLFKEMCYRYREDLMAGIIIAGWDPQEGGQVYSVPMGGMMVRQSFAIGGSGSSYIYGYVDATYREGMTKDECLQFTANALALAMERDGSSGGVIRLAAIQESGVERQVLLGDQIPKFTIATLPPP
Description: as §2, with “activities. […]” for “activities.”
equated at 100% activity of the enzyme. Activity assays for recombinant Casp3 was done similarly to recombinant Casp6, except the substrate used was Ac-Asp-Glu-Val-Asp-7-Amino-4-trifluoromethylcouramin (Ac-DEVD-AFC: Enzo Life Sciences, NY, USA).
Proteasome assay: The caspase-like activity of the proteasome was measured using the substrate Ac-Nle-Pro-Nle-Asp-AMC (Enzo LifeSciences, NY, USA) at a final concentration of 10 µM in Stennicke’s buffer in the presence of 10 mM DTT. […]
Statistical Analysis: For Caspase-3 activity assays, data represent the mean ± SEM of 3 livers from 3 animals and was analyzed using a one-way ANOVA with Dunnett’s post hoc test (*** p < 0.001 in DMSO, and ### p < 0.001 in bortezomib) comparing all samples to LPS/GALN-treated mice in the absence of methylene blue, while proteasome assays were analyzed using […]

| RCasp3 activity in vitro (RCasp3) | Structure (SMILES) | DEVDase activity in LPS/GALN-treated mouse liver protein extracts [1] | inhibition of Casp6 activity (RCasp6 [2]) | concentration above which cell body size and axonal fragmentation increased (human primary neurons) | VEIDase activity (Casp6 [3]) | Tub∆Casp6/Tub levels (Casp6 [3]) | mode of inhibition (RCasp6 [4]) | Ki (RCasp6 [4]) | IC50 (RCasp6 [5]) | concentration at which cells retained morphology and confluence comparable to PBS-treated controls (HCT116 cells) | Casp6 activity on the Ac-VEID-AFC peptide substrate (Casp6 [6]) | further results |
| --- | --- | --- | --- | --- | --- | --- | --- | --- | --- | --- | --- | --- |
| abrogated | CC(C)[C@H](NC(=O)c1ccc2ccccc2n1)C(=O)N[C@@H](CC(=O)O)C(=O)COc1c(F)cccc1F [Q-VD-OPh] | abrogated | – | – | – | – | – | – | – | – | – | – |
| – | CN(C)c1ccc2nc3ccc(N)cc3[s+]c2c1 [azure A, (7-aminophenothiazin-3-ylidene)-dimethylazanium;chloride] | – | inhibited Casp6 activity in a dose dependent manner | above 50 μM | significantly inhibited | significantly decreased | competitive | 0.42 µM | 0.5 µM | 50 μM | trend towards inhibition but it did not reach statistical significance | concentration necessary for a significant inhibition of Casp6 activity (RCasp6 [2]): 10 nM; concentration above which toxicity was shown (HCT116 cells; HCT116, MTT assay): above 50 μM |
| – | CNc1ccc2nc3ccc(N(C)C)cc3[s+]c2c1 [azure B, dimethyl-[7-(methylamino)phenothiazin-3-ylidene]azanium;chloride] | – | inhibited Casp6 activity in a dose dependent manner | > 10 µM | significantly inhibited | significantly decreased | competitive | 7.89 µM | 34.4 µM | 100 μM | significantly inhibited | concentration at which reduction in Casp6 activity was observed (RCasp6 [2]): 100 pM; sequenced peptides containing oxidized Cys163 [7]: 7.7%; concentration up to which well tolerated (HCT116 cells; HCT116, MTT assay): up to 100 μM |
| did not inhibit | CC(C)C[C@H](NC(=O)[C@H](Cc1ccccc1)NC(=O)c1cnccn1)B(O)O [bortezomib] | – | – | – | – | – | – | – | – | – | – | nLPnLDase proteasomal activity [8]: significantly inhibited |
| – | CC[C@H](C)[C@H](NC(=O)[C@H]([C@@H](C)CC)N(C)C(C)=O)C(=O)N[C@H](C(=O)N[C@@H](CC(C)C)C(=O)[C@@]1(C)CO1)[C@@H](C)O [epoxomicin] | nor was Casp3 DEVDase activity affected | – | – | – | – | – | – | – | – | – | – |
